Results from US10369185B2, “Methods and compositions for enhancement of ability to concentrate” (KYOWA HAKKO BIO CO., LTD., priority 2014, dated 2019).
“Also recorded” adds a separate entry of the source. Peptide text beside a SMILES is read from it.

Experiments:
male runners [1] = assay: Multiple object tracking (CAVE, NeuroTracker); format: in vivo, human; conditions: for NeuroTracker Δ, group mean: Post-Pre
Experimental: The testing protocol is depicted in FIG. 1. Data collection occurred on four separate occasions. Each session required participants to perform a 60-min run at 75% of their previously measured VO2max. Following this run, all participants performed a run at 90% of their VO2max until volitional exhaustion. All participants performed their first trial (DHY) without any rehydration. During this session the total weight lost during the trial was determined. The fluid loss that occurred during this session was then used to determine the participant's swear rate (L·hr^−1). To continue in the study, participant's sweat rate was or exceeded 1.3 L·hr^−1. During the next three trails participants were provided 250 ml of fluid every 15 minutes in equal amounts. During one of the trials participants consumed only a flavored sports drink (ELECT only), while during the other trials participants consumed the alanine-glutamine supplement (Sustamine™) mixed in the same flavored sports drink at either a low (LD: 300 mg per 500 ml) or high (HD: 1 g per 500 ml) dose. Visual optical tracking was assessed using a Cave Automatic Virtual Environment (CAVE) system. The CAVE is a 2.4 m×2.4 m×2.4 m room that includes a frontal canvas projection wall which served as surfaces for image projection. Four high-resolution projectors were synchronized, and the image was projected onto the front screen. Participants tracked 4 of 8 objects that moved in a three-dimensional plane. Velocity of movement began at a slow tracking speed and progressed on the performance of the individual participant. Each participant performed 10 trials. During each trial participants wore 3-dimensional glasses. The velocity of movement that was most successful was recorded. Additionally, to make inferences on true effects of the different trials on reaction performance, an analysis based on the magnitude of differences, calculated from 90% confidence intervals, as previously described by Batterham and Hopkins (2005), was used in this study. Differences in Post-Pre performance (Δresponse) between trials were analyzed via a published spreadsheet (Hopkins 2007), with the smallest non-trivial change set at 20% of the grand standard deviation (Batterham and Hopkins 2005). All data are expressed as a mean effect±SD, with percent chances of a beneficial, trivial or negative outcome. Qualitative inferences, based on quantitative chances were assessed as: <1% almost certainly not, 1-5% very unlikely, 5-25% unlikely, 25-75% possibly, 75-95% likely, 95-99% very likely and >99% almost certainly (Hopkins 2002).

male runners [2] = assay: Lower body reaction, 20-second Quick Board test; format: in vivo, human; conditions: for QuickBoard Hit Δ, group mean: Post-Pre; for changes in lower body reaction (Quick Board): LD and HD, no significant differences between groups
Experimental: The testing protocol is depicted in FIG. 1. Data collection occurred on four separate occasions. Each session required participants to perform a 60-min run at 75% of their previously measured VO2max. Following this run, all participants performed a run at 90% of their VO2max until volitional exhaustion. All participants performed their first trial (DHY) without any rehydration. During this session the total weight lost during the trial was determined. The fluid loss that occurred during this session was then used to determine the participant's swear rate (L·hr^−1). To continue in the study, participant's sweat rate was or exceeded 1.3 L·hr^−1. During the next three trails participants were provided 250 ml of fluid every 15 minutes in equal amounts. During one of the trials participants consumed only a flavored sports drink (ELECT only), while during the other trials participants consumed the alanine-glutamine supplement (Sustamine™) mixed in the same flavored sports drink at either a low (LD: 300 mg per 500 ml) or high (HD: 1 g per 500 ml) dose. A Lower body reaction time was assessed by a 20-second reaction test on the Quick Board™ (The Quick Board, LLC, Memphis, Tenn.) reaction timer (QB). Participants stood on a board of five circles, in a 2×1×2 pattern. The participant straddled the middle circle and reacted to a visual stimulus located on a display box that depicted one of five potential lights that corresponded with the circles on the board. Upon activation of the light, the participant attempted to move the foot closest to the circle that corresponded to the visual stimulus. Upon a successful connection the next stimulus appeared. The total number of successful attempts for the 20-second test and the average time between the activation of the light and the response to the corresponding circle were recorded. Additionally, to make inferences on true effects of the different trials on reaction performance, an analysis based on the magnitude of differences, calculated from 90% confidence intervals, as previously described by Batterham and Hopkins (2005), was used in this study. Differences in Post-Pre performance (Δresponse) between trials were analyzed via a published spreadsheet (Hopkins 2007), with the smallest non-trivial change set at 20% of the grand standard deviation (Batterham and Hopkins 2005). All data are expressed as a mean effect±SD, with percent chances of a beneficial, trivial or negative outcome. Qualitative inferences, based on quantitative chances were assessed as: <1% almost certainly not, 1-5% very unlikely, 5-25% unlikely, 25-75% possibly, 75-95% likely, 95-99% very likely and >99% almost certainly (Hopkins 2002).

SMILES: C[C@H](N)C(=O)N[C@@H](CCC(N)=O)C(=O)O [L-Alanyl-L-Glutamine] (H-Ala-Gln-OH)
- NeuroTracker Δ, Interpretation (male runners [1]; Dehydration vs High Dose): Unclear
- NeuroTracker Δ, Mean Difference (male runners [1]; Dehydration vs High Dose): −0.06
- NeuroTracker Δ, Percent Negative (male runners [1]; Dehydration vs High Dose): 37.20%
- NeuroTracker Δ, Percent Positive (male runners [1]; Dehydration vs High Dose): 12.32%
- NeuroTracker Δ, Percent Trivial (male runners [1]; Dehydration vs High Dose): 50.47%
- NeuroTracker Δ, Interpretation (male runners [1]; Dehydration vs Low Dose): Unclear
- NeuroTracker Δ, Mean Difference (male runners [1]; Dehydration vs Low Dose): 0.008
- NeuroTracker Δ, Percent Negative (male runners [1]; Dehydration vs Low Dose): 21.19%
- NeuroTracker Δ, Percent Positive (male runners [1]; Dehydration vs Low Dose): 24.48%
- NeuroTracker Δ, Percent Trivial (male runners [1]; Dehydration vs Low Dose): 54.33%
- NeuroTracker Δ, Interpretation (male runners [1]; Gatorade vs High Dose): likely maintain or improve their scores more so than when they consumed the electrolyte drink only; also recorded: Likely
- NeuroTracker Δ, Mean Difference (male runners [1]; Gatorade vs High Dose): −0.23
- NeuroTracker Δ, Percent Negative (male runners [1]; Gatorade vs High Dose): 85.10%
- NeuroTracker Δ, Percent Positive (male runners [1]; Gatorade vs High Dose): 0.44%
- NeuroTracker Δ, Percent Trivial (male runners [1]; Gatorade vs High Dose): 14.46%
- NeuroTracker Δ, group mean (male runners [1]; High Dose (1 g per 500 ml)): 0.201
- NeuroTracker Δ, group mean (male runners [1]; Low Dose (300 mg per 500 ml)): 0.132
- NeuroTracker Δ, Interpretation (male runners [1]; Low Dose vs Gatorade): Possibly
- NeuroTracker Δ, Mean Difference (male runners [1]; Low Dose vs Gatorade): 0.17
- NeuroTracker Δ, Percent Negative (male runners [1]; Low Dose vs Gatorade): 4.42%
- NeuroTracker Δ, Percent Positive (male runners [1]; Low Dose vs Gatorade): 64.40%
- NeuroTracker Δ, Percent Trivial (male runners [1]; Low Dose vs Gatorade): 31.18%
- NeuroTracker Δ, Interpretation (male runners [1]; Low Dose vs High Dose): Possibly
- NeuroTracker Δ, Mean Difference (male runners [1]; Low Dose vs High Dose): 0.069
- NeuroTracker Δ, Percent Negative (male runners [1]; Low Dose vs High Dose): 26.72%
- NeuroTracker Δ, Percent Positive (male runners [1]; Low Dose vs High Dose): 0.45%
- NeuroTracker Δ, Percent Trivial (male runners [1]; Low Dose vs High Dose): 72.83%
- changes in multiple object tracking (male runners [1]; between trials): No significant differences were noted between trials
- QuickBoard Hit Δ, Interpretation (male runners [2]; Dehydration vs High Dose): likely lower
- QuickBoard Hit Δ, Mean Difference (male runners [2]; Dehydration vs High Dose): −2.6
- QuickBoard Hit Δ, Percent Negative (male runners [2]; Dehydration vs High Dose): 90.99%
- QuickBoard Hit Δ, Percent Positive (male runners [2]; Dehydration vs High Dose): 1.92%
- QuickBoard Hit Δ, Percent Trivial (male runners [2]; Dehydration vs High Dose): 7.10%
- QuickBoard Hit Δ, Interpretation (male runners [2]; Dehydration vs Low Dose): likely lower
- QuickBoard Hit Δ, Mean Difference (male runners [2]; Dehydration vs Low Dose): −2.2
- QuickBoard Hit Δ, Percent Negative (male runners [2]; Dehydration vs Low Dose): 88.90%
- QuickBoard Hit Δ, Percent Positive (male runners [2]; Dehydration vs Low Dose): 1.93%
- QuickBoard Hit Δ, Percent Trivial (male runners [2]; Dehydration vs Low Dose): 9.16%
- QuickBoard Hit Δ, Interpretation (male runners [2]; Gatorade vs High Dose): Unclear
- QuickBoard Hit Δ, Mean Difference (male runners [2]; Gatorade vs High Dose): −1.7
- QuickBoard Hit Δ, Percent Negative (male runners [2]; Gatorade vs High Dose): 73.53%
- QuickBoard Hit Δ, Percent Positive (male runners [2]; Gatorade vs High Dose): 9.72%
- QuickBoard Hit Δ, Percent Trivial (male runners [2]; Gatorade vs High Dose): 16.75%
- QuickBoard Hit Δ, group mean (male runners [2]; High Dose (1 g per 500 ml)): 1.17
- changes in lower body reaction (Quick Board) (male runners [2]): performance appeared to improve in LD and HD
- changes in lower body reaction (Quick Board) (male runners [2]; listed as L-alanyl-L-glutamine): Performance appeared to improve
- QuickBoard Hit Δ, group mean (male runners [2]; Low Dose (300 mg per 500 ml)): 0.75
- QuickBoard Hit Δ, Interpretation (male runners [2]; Low Dose vs Gatorade): Unclear
- QuickBoard Hit Δ, Mean Difference (male runners [2]; Low Dose vs Gatorade): 1.3
- QuickBoard Hit Δ, Percent Negative (male runners [2]; Low Dose vs Gatorade): 17.75%
- QuickBoard Hit Δ, Percent Positive (male runners [2]; Low Dose vs Gatorade): 63.09%
- QuickBoard Hit Δ, Percent Trivial (male runners [2]; Low Dose vs Gatorade): 19.15%
- QuickBoard Hit Δ, Interpretation (male runners [2]; Low Dose vs High Dose): trivial; also recorded: Possibly
- QuickBoard Hit Δ, Mean Difference (male runners [2]; Low Dose vs High Dose): 0.42
- QuickBoard Hit Δ, Percent Negative (male runners [2]; Low Dose vs High Dose): 29.69%
- QuickBoard Hit Δ, Percent Positive (male runners [2]; Low Dose vs High Dose): 0.19%
- QuickBoard Hit Δ, Percent Trivial (male runners [2]; Low Dose vs High Dose): 70.12%
